Laboratory results reported in PubChem BioAssay (NCI).
Several values for one entry are separate records, joined by “and”; a condition that tells them apart may be missing. Identical values can stand only once.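 Growth conditions: 96-well plates. Treatment: test compound, 48 hours, 5 concentrations. Analysis: linear interpolation between bracketing concentrations; unreached endpoints set to highest concentration. GI50 is the concentration that inhibits growth by half. TGI denotes the concentration required for complete inhibition of growth.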

Columns and labels:
Test in all cases: growth of human tumour cells (NCI), 48 h
[1] = tested on: NCI-H522 lung
[2] = tested on: NCI-H460 lung
[3] = tested on: UACC-257 melanoma
[4] = tested on: RXF 393 renal
[5] = tested on: OVCAR-3 ovarian
[6] = tested on: SN12C renal
[7] = tested on: OVCAR-5 ovarian
[8] = tested on: SNB-19 CNS
[9] = tested on: HOP-62 NSCLC
[10] = tested on: SK-OV-3 ovarian

Row | Compound | TGI [1] | GI50 [2] | TGI [2] | GI50 [3] | TGI [3] | GI50 [4] | TGI [4] | GI50 [5] | TGI [5] | TGI [6] | GI50 [7] | TGI [7] | GI50 [8] | TGI [8] | GI50 [9] | TGI [9] | TGI [10] | GI50 [1] | GI50 [6] | GI50 [10]
1 | O=C(NOC[C@H](O)CO)c1ccc(F)c(F)c1Nc1ccc(I)cc1F | > 100 µM | 15 µM and > 3.36 µM | > 100 µM | < 0.01 µM and 0.00154 µM | < 0.01 µM and 0.00947 µM | 0.363 µM and 0.342 µM | 43.4 µM and > 10 µM | 37.6 µM and > 10 µM | > 100 µM | > 100 µM | < 0.01 µM and 0.0036 µM | > 100 µM | 20.6 µM | > 100 µM | 0.00599 µM | > 100 µM | > 100 µM | – | – | –
2 | OCc1ccc(N2CCc3cccc(F)c3C2)cc1Cl | 36.3 µM | < 0.0194 µM | 1.23 µM | – | – | 12.6 µM | 27.9 µM | < 0.0169 µM | 0.0505 µM | > 70.2 µM | 0.0253 µM | 0.151 µM | 30.9 µM | > 100 µM | 0.0275 µM | 27.2 µM | 14.6 µM | 13.4 µM | 14.6 µM | 1.89 µM
3 | COc1cc2c(c(OC)c1OC)-c1ncc3c(OC)c(OC)c(OC)cc3c1C2 | 48.3 µM | 32.6 µM | > 100 µM | – | – | 25.2 µM | 83.2 µM | 21.5 µM | 50.9 µM | 64.8 µM | 17.4 µM | 77.9 µM | 40.1 µM | > 100 µM | 28.5 µM | 86 µM | 74.9 µM | 19.3 µM | 20.3 µM | 29.5 µM
4 | O=S(=O)(NC1=NCCN1C(=S)SN1CCn2c1nsc2=S)c1cccc2ccccc12 | 36.1 µM | 20.4 µM | > 100 µM | 24.3 µM | 97.2 µM | 10.5 µM | 67.2 µM | 16.5 µM | 40.3 µM | 37.6 µM | 61 µM | > 100 µM | 62.3 µM | > 100 µM | 20.6 µM | 54.3 µM | 91.5 µM | 12.2 µM | 17.2 µM | 31.1 µM
5 | CCOC(=O)C(Cc1c[nH]c2c(N(CCO)CCO)cccc12)(NC(C)=O)C(=O)OCC | > 1000 µM | 642 µM | > 1000 µM | > 1000 µM | > 1000 µM | > 1000 µM | > 1000 µM | 270 µM | 873 µM | 290 µM | > 1000 µM | > 1000 µM | > 1000 µM | > 1000 µM | > 1000 µM | > 1000 µM | > 1000 µM | > 1000 µM | 141 µM | > 1000 µM
6 | Cc1nn[n-]n1.N.N.N.N.N.[Cl-].[Co+3] | – | > 100 µM | > 100 µM | > 100 µM | > 100 µM | > 100 µM | > 100 µM | > 100 µM | > 100 µM | > 100 µM | > 100 µM | > 100 µM | > 100 µM | > 100 µM | > 100 µM | > 100 µM | > 100 µM | – | > 100 µM | > 100 µM
7 | O=C(/C=C/c1ccccc1)C(Br)C(Br)c1ccccc1 (configuration not stated) | 2.31 µM | 2.37 µM | 5.97 µM | 1.59 µM | 3.66 µM | 1.52 µM | 3 µM | 1.17 µM | 2.45 µM | 4.65 µM | 1.67 µM | 3.39 µM | 4.72 µM | 17.7 µM | 4.06 µM | 14.9 µM | 13.3 µM | 1.04 µM | 2 µM | 3.66 µM
8 | O=c1c2cc(F)ccc2sc2c(N3CCNCC3)nc3ccc(F)cc3c12 | 3.39 µM | 1.59 µM | 3.12 µM | 1.88 µM | 3.7 µM | 1.33 µM | 2.71 µM | 1.73 µM | 3.17 µM | 3.05 µM | 1.66 µM | 3.07 µM | 1.69 µM | 3.2 µM | 1.82 µM | 3.85 µM | – | 1.7 µM | 1.58 µM | –
9 | COc1ccc(C2OC(=O)c3ccc4ccccc4c32)c(C)c1 (configuration not stated) | 20.9 µM | – | > 54.3 µM | – | > 100 µM | – | > 65.9 µM | – | 53.1 µM | > 100 µM | – | > 100 µM | – | > 100 µM | – | > 90.2 µM | 60.1 µM | – | – | –
10 | CCOC(=O)c1cc2cc3c4c(c2oc1=O)CCCN4CCC3 | 45.6 µM | – | > 100 µM | – | > 100 µM | – | 39.4 µM | – | 93.9 µM | > 100 µM | – | > 100 µM | – | > 100 µM | – | > 100 µM | – | – | – | –
11 | C#Cc1cccc(N2C(=O)c3c(c(-c4ccccc4)c(-c4ccc(Cc5ccc(-c6c(-c7ccccc7)c7c(c(-c8ccccc8)c6-c6ccccc6)C(=O)N(c6cccc(C#C)c6)C7=O)cc5)cc4)c(-c4ccccc4)c3-c3ccccc3)C2=O)c1 | > 100 µM | – | > 100 µM | – | > 100 µM | – | > 100 µM | – | > 100 µM | > 100 µM | – | > 100 µM | – | > 100 µM | – | > 100 µM | – | – | – | –
12 | COc1cc2ncn(-c3cc(OCc4ccccc4C(F)(F)F)c(C(=O)N(C)C)s3)c2cc1OC | > 25 µM | > 25 µM | > 25 µM | > 25 µM | > 25 µM | 8.53 µM | > 18.7 µM | > 21.8 µM | > 25 µM | > 25 µM | > 25 µM | > 25 µM | > 25 µM | > 25 µM | > 13.5 µM | > 25 µM | > 25 µM | 17.3 µM | 24.6 µM | > 16 µM
13 | O=C(O)c1ccc(CI)cc1 | 11.8 µM | – | 31.7 µM | – | 38.9 µM | – | 37.6 µM | – | 23.3 µM | 34.7 µM | – | 34.5 µM | – | 31.9 µM | – | 36.1 µM | 55 µM | – | – | –
14 | Cn1c(C(=O)c2ccncc2)cc2ccccc21 | > 100 µM | > 100 µM | > 100 µM | > 100 µM | > 100 µM | 35.1 µM | > 100 µM | 49.7 µM | > 100 µM | > 100 µM | > 100 µM | > 100 µM | > 100 µM | > 100 µM | > 100 µM | > 100 µM | > 100 µM | 78.5 µM | > 100 µM | > 100 µM
